The values below come from article PMC7590683, “Xanthine oxidase inhibitory activity of a new isocoumarin obtained from Marantodes pumilum var. pumila leaves” (BMC Complementary Medicine and Therapies, 2020).

Experiment [1] relates to xanthine oxidase. Further details: method as in PMID 18201686. The following applies: cited from earlier work.
The subject of experiment [2] is xanthine oxidase. Further details: method as in PMID 30189275. The conditions noted are these: better than allopurinol; cited from earlier work.
Experiment [3] deals with T1, xanthine oxidase (Bos taurus, UniProt P80457).
T1 construct: xanthine oxidase (cow’s milk) were purchased from Sigma-Aldrich Chemicals; purchased Sigma-Aldrich Chemicals (St. Louis, MO, USA); host or cells: cow's milk (natural source)
T1 sequence (P80457 whole entry): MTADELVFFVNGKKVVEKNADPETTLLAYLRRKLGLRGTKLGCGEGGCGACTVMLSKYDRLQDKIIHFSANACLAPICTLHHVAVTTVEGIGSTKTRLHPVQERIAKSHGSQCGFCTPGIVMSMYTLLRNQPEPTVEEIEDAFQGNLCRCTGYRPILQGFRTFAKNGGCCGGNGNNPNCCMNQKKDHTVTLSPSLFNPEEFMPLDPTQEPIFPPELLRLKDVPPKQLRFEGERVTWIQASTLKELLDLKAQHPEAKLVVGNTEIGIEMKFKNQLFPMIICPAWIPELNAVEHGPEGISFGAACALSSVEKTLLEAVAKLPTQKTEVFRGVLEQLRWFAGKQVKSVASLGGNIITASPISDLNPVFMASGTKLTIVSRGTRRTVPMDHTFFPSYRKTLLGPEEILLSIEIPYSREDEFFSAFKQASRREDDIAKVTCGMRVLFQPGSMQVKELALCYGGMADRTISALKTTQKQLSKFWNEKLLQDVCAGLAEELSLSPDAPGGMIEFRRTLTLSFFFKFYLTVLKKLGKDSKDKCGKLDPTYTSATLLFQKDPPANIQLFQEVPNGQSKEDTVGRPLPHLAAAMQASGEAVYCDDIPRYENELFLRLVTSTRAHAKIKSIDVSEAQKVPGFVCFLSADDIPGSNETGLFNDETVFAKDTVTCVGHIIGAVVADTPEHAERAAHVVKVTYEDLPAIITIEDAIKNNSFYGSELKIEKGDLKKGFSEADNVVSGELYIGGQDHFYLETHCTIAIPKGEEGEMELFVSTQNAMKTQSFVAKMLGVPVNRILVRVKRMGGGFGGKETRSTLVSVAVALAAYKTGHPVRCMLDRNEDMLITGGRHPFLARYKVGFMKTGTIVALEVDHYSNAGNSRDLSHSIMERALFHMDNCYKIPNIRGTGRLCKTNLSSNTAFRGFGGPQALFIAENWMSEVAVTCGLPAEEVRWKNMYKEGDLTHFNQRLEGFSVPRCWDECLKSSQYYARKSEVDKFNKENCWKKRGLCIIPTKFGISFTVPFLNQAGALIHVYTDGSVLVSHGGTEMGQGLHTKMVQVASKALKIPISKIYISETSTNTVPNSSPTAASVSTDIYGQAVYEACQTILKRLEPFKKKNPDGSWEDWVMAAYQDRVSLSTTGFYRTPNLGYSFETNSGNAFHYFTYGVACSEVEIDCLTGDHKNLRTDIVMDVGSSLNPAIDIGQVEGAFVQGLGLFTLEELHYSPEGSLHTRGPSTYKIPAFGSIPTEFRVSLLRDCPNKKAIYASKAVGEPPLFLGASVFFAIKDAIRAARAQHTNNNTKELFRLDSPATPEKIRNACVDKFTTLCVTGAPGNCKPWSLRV
Description: In vitro xanthine oxidase inhibitory assay. The class given is biochemical, cow. The following applies: for inhibition at 6.25 µg/mL: 6.25 μg/mL; for inhibition at 12.5 µg/mL: 12.5 μg/mL; for inhibition at 25 µg/mL: 25 μg/mL; for inhibition at 50 µg/mL: 50 μg/mL; for IC50: mean ± S.E.M., n = 3, read-out: IC50 value of xanthine oxidase inhibition (converted). The protocol: The xanthine oxidase inhibitory assay was carried out using a previously reported method with slight modifications. […] This was followed by dilution with potassium phosphate buffer (0.05 M, pH 7.5) to achieve the desired concentrations. Each test solution contained 0.5% DMSO. The assay was performed in triplicates in a 96-well microplate. […] Then, 100 μL of substrate solution, xanthine (0.15 mM, pH 7.5), was added before further incubating at 25 °C for 10 min. The final assay mixture was spectrophotometrically measured at 295 nm. Xanthine oxidase inhibitory activity was expressed as the percentage of xanthine oxidase inhibition and calculated using the following formula: %Xanthine Oxidase Inhibition=A−B−C−D/A−B×100

For experiment [4], the system named is xanthine oxidase. Further details: method as in PMID 8572586. The conditions noted are these: cited from earlier work.
The mark [5] stands for this setting: read-out: Percentage of xanthine oxidase inhibition.
Where [6] appears, read: 100 μg/mL, read-out: Percentage of xanthine oxidase inhibition.

Where two headings read alike, the source gives them in different places.

`O=c1cc(O)c2ccccc2o1` [4-hydroxycoumarin]: in experiment [1], the “mode of inhibition against xanthine oxidase” value (shortened to “mode of inhibition”) is “competitive inhibition”.

`O=c1oc2cc(O)cc(O)c2cc1-c1cccc(O)c1` [5,7-dihydroxy-3-(3-hydroxyphenyl) coumarin]: in experiment [2], the “xanthine oxidase inhibitory activity relative to allopurinol” value is 7 fold.

For `Cc1cc(=O)oc2cc(O)c(O)cc12` [7-hydroxy-4-methylesculetin], in experiment [1], the “mode of inhibition” value is reported as “competitive inhibition”.

As for `O=c1ccc2ccc(O)cc2o1` [7-hydroxycoumarin], the “mode of inhibition” value in experiment [1] is reported as “competitive inhibition”.

As for `Oc1ncnc2[nH]ncc12` [Allopurinol, allopurinol, reference compound], in experiment [3] (setting [5]), the inhibition at 0.0064 µg/mL is 4.12%, the inhibition at 0.032 µg/mL was determined as 17.8%, the inhibition at 0.16 µg/mL was 29.5% and the inhibition at 0.8 µg/mL worked out at 93.7%. Moreover, in experiment [3] (setting [5]), the inhibition at 4 µg/mL was determined as 98.9%, the inhibition at 20 µg/mL was 99% and the inhibition at 100 µg/mL amounted to 99.8%.

As to `COc1cc(O)c(C)c2c(=O)oc(O)c(C)c12` [Compound 1, 3,7-dihydroxy-5-methoxy-4,8-dimethyl-isocoumarin], the inhibition at 0.39 µg/mL in experiment [3] (0.39 μg/mL, read-out: Percentage of xanthine oxidase inhibition) came to 39.6 ± 0.68%. For the same molecule, the inhibition at 0.78 µg/mL in experiment [3] (0.78 μg/mL, read-out: Percentage of xanthine oxidase inhibition) was 54.14 ± 0.34%. For the same molecule, in experiment [3] (1.56 μg/mL, read-out: Percentage of xanthine oxidase inhibition), the inhibition at 1.56 µg/mL was found to be 66.49 ± 0.05%. Further, the inhibition at 3.13 µg/mL in experiment [3] (3.13 μg/mL, read-out: Percentage of xanthine oxidase inhibition) amounted to 76.17 ± 0.52%. In addition, in experiment [3] (setting [5]), the inhibition at 6.25 µg/mL came to 86.02 ± 0.14%, the inhibition at 12.5 µg/mL amounted to 91.75 ± 0.22%, the inhibition at 25 µg/mL was found to be 95.04 ± 0.86% and the inhibition at 50 µg/mL worked out at 96.91 ± 0.06%. For the same molecule, the IC50 in experiment [3] was 2.79 µM.

Take `COC1=CC(=O)C(O)=C(CCCCCCC/C=C\CCCCCCCC2=C(O)C(=O)C=C(OC)C2=O)C1=O` [Compound 2, Ardisiaquinone A]: in experiment [3] (setting [5]), the inhibition at 6.25 µg/mL worked out at 9.11 ± 0.28%, the inhibition at 12.5 µg/mL amounted to 14.5 ± 0.45%, the inhibition at 25 µg/mL came out at 36.31 ± 0.08% and the inhibition at 50 µg/mL was 74.08 ± 0.5%. In addition, in experiment [3] (isolated compounds), the “xanthine oxidase inhibitory activity (in words)” value is reported as “low activity”. Besides, the IC50 in experiment [3] is 59 µM.

As to `CCCC/C=C\CCCCCCCCCC1=C(O)C(=O)C=C(OC)C1=O` [Compound 3, Maesanin], the inhibition at 100 µg/mL in experiment [3] (setting [5]) stood at 0%.

Turning to `CC[C@H](/C=C/[C@@H](C)[C@H]1CC[C@H]2[C@@H]3CC=C4C[C@@H](O)CC[C@]4(C)[C@H]3CC[C@]12C)C(C)C` [Compound 4, Stigmasterol], the inhibition at 100 µg/mL in experiment [3] (setting [6]) amounted to 0%.

Consider `CCCCCCCCCCCCCCCCCCCCCCCC` [Compound 5, Tetracosane], for which the inhibition at 100 µg/mL in experiment [3] (setting [6]) turned out to be 0%.

For the molecule `CCCCCCCCCCCCCCCCC(=O)O` [Compound 6, Margaric acid], the inhibition at 100 µg/mL in experiment [3] (setting [6]) turned out to be 0%.

For the molecule `O=c1ccc2cc(O)c(O)cc2o1` [Esculetin], the “xanthine oxidase inhibitory activity (in words)” value in experiment [4] is recorded as “strong”. Moreover, in experiment [1], the “mode of inhibition” value is given as “competitive inhibition” and the “relative potency among selected coumarins against xanthine oxidase” value is “most potent inhibitor”.

As for `O=c1ccc2ccccc2o1` [coumarin], the “mode of inhibition” value in experiment [1] is “competitive inhibition”.

`O=C1CCc2ccccc2O1` [dihydrocoumarin]: in experiment [1], the “mode of inhibition” value was “competitive inhibition”.

Turning to `COc1cc2ccc(=O)oc2cc1O` [scopoletin], the “mode of inhibition” value in experiment [1] is “competitive inhibition”.
